# Source: ChEMBL document CHEMBL2163330, “Dynamic modeling of human 5-lipoxygenase-inhibitor interactions helps to discover novel inhibitors” (J Med Chem, 2012)
# Key:
# [1] = target: T1, Leukotriene A-4 hydrolase (Homo sapiens) (UniProt P09960); assay: Inhibition of epoxide hydrolase activity of human recombinant leukotriene A4 hydrolase expressed in Escherichia coli assessed as LTB4 production at 100 uM by RP-HPLC
# T1 sequence (whole entry): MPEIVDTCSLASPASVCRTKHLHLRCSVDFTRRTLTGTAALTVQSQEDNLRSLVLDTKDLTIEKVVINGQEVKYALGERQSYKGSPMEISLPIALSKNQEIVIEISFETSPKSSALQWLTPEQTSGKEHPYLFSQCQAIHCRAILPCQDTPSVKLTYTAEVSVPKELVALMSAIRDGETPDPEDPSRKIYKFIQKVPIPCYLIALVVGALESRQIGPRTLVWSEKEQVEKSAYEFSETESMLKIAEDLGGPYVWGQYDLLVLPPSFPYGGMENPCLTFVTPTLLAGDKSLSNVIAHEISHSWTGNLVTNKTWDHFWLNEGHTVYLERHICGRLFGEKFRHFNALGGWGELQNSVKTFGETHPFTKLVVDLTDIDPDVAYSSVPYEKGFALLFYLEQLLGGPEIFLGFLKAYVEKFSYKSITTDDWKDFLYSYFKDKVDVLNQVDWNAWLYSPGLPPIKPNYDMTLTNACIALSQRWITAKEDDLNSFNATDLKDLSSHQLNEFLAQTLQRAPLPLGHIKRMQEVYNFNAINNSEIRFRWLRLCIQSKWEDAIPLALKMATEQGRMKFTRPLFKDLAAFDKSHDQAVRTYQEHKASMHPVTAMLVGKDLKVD
# [2] = target: T2, Polyunsaturated fatty acid 5-lipoxygenase (Homo sapiens, UniProt P09917); assay: Inhibition of human 5-LOX in A23187-induced human whole blood assessed as reduction in LTB4 production pre-incubated for 20 mins before A23187 addition by enzyme immunoassay
# T2 sequence (P09917 whole entry): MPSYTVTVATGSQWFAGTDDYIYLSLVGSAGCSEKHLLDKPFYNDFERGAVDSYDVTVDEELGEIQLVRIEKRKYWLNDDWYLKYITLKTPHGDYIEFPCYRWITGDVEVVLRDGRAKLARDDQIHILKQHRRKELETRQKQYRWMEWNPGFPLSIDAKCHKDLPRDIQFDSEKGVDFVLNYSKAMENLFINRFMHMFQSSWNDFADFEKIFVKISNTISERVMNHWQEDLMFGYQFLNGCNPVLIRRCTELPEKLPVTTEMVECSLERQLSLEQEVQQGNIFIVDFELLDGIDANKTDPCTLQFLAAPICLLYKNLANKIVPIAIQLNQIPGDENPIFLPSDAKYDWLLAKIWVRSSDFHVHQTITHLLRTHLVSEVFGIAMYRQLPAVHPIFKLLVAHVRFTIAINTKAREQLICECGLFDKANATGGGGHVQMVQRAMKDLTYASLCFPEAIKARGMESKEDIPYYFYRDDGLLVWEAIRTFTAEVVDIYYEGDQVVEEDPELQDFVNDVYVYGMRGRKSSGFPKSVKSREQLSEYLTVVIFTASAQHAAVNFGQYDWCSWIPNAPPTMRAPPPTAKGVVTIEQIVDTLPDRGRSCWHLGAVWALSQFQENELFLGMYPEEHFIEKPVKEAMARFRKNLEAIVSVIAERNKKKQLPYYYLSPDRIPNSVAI
# [3] = target: T2, Polyunsaturated fatty acid 5-lipoxygenase; assay: Inhibition of human recombinant 5-LOX expressed in Escherichia coli […] incubated 10 mins before substrate addition by fluorescence spectrophotometry based cell free system assay
# [4] = target: T3, Prostaglandin G/H synthase 2 (Homo sapiens) (UniProt P35354); assay: Inhibition of purified COX2 assessed as formation of oxidized TMPD during reduction of PGG2 to PGH2 preincubated for 15 mins by chromogenic assay
# T3 sequence (whole entry): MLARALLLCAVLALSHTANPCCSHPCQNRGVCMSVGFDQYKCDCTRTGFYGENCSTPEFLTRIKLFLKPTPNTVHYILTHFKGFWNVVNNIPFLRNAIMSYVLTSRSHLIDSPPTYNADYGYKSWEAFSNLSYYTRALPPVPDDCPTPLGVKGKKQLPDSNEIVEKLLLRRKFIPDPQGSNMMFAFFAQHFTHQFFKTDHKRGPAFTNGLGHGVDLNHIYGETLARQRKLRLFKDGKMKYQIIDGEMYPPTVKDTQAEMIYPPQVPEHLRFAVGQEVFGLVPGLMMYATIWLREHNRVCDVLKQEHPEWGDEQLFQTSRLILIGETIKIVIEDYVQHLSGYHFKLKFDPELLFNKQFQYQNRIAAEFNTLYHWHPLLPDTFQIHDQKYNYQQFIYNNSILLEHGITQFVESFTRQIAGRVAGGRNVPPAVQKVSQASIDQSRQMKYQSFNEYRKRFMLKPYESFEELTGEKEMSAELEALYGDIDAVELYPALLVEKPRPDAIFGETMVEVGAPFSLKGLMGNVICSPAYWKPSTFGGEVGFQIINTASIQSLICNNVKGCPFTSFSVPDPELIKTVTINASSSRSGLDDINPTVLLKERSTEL
# [5] = target: Prostaglandin G/H synthase 1 (Homo sapiens) (UniProt P23219); assay: Inhibition of purified COX1 assessed as formation of oxidized TMPD during reduction of PGG2 to PGH2 preincubated for 15 mins by chromogenic assay
# Chain of Prostaglandin G/H synthase 1 (Homo sapiens) (P23219 whole entry): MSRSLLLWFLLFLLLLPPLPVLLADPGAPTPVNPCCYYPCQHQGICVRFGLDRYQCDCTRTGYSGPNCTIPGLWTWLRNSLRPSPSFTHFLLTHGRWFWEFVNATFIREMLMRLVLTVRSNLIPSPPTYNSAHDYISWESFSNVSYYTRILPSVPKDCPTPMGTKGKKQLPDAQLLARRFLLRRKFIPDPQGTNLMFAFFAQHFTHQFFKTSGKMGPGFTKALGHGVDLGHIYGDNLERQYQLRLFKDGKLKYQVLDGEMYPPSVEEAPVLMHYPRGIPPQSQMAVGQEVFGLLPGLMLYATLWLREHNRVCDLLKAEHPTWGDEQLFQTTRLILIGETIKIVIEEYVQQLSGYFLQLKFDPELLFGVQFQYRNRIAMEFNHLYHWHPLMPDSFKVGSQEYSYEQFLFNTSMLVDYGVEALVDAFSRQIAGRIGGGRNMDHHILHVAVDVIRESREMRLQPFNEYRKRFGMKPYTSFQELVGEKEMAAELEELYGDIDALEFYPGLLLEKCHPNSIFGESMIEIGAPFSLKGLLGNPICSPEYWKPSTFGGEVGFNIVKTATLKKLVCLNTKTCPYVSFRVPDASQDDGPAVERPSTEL
# [6] = target: T4, Prostaglandin E synthase (Homo sapiens, UniProt O14684); assay: Inhibition of mPGES1 in LPS-stimulated human whole blood assessed as reduction in PGE2 production incubated for 24 hrs at 37 degC by enzyme immunoassay
# T4 sequence (O14684 whole entry): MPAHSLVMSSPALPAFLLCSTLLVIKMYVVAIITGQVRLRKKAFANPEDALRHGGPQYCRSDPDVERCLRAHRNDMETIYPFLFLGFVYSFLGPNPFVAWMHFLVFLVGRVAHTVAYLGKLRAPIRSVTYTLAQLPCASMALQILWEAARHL
# [7] = target: T4, Prostaglandin E synthase; assay: Inhibition of mPGES1 expressed in Escherichia coli Rosetta-DE3 assessed as reduction in PGE2 production by enzyme immunoassay based cell-free system assay
# [8] = target: T5, Polyunsaturated fatty acid 5-lipoxygenase (Rattus norvegicus, UniProt P12527); assay: Inhibition of 5-LOX in rat RBL1 cells assessed as reduction in LTB4 production; assay type: cell-based, RBL-1
# T5 sequence (P12527 whole entry): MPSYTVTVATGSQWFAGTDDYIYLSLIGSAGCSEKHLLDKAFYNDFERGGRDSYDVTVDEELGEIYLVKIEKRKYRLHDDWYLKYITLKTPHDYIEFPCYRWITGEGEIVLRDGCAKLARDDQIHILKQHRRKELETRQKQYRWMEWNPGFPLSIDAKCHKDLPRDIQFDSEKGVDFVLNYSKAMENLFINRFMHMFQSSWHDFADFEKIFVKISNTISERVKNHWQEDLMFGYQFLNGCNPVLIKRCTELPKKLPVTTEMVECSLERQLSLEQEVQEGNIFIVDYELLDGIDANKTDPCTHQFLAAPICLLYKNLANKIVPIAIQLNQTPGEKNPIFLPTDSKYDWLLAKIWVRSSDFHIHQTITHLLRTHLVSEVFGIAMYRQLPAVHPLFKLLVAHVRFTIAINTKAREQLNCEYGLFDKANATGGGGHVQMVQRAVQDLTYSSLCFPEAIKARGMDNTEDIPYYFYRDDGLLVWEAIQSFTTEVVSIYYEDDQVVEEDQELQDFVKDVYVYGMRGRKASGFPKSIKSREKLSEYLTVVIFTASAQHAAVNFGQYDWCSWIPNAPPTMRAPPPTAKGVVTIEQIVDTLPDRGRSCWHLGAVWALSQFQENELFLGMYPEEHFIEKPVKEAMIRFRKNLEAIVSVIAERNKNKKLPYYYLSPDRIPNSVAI
SMILES,inhibition [1] [%],IC50 [2] [µM],IC50 [3] [µM],inhibition [4] [%],inhibition [5] [%],IC50 [6] [µM],IC50 [7] [µM],IC50 [8] [µM]
O=C(NC1c2ccccc2Oc2ccccc21)c1ccc(Cl)c([N+](=O)[O-])c1,< 50,> 100,67,,,,,
COC(=O)c1ccc(NC(=S)NC(=O)c2cc(-c3ccccc3)nc3ccccc23)cc1,< 50,> 100,45,,,,,
O=C1OC(c2ccc3ccccc3c2)=N/C1=C\c1ccc(Cl)cc1,< 50,> 100,80,,,,,
COc1ccc(-c2nnc3sc(/C=C/c4ccccc4OC)nn23)cc1,< 50,> 100,17,,,,,
O=C(COC(=O)c1ccc(C(=O)c2ccc([N+](=O)[O-])cc2)cc1)c1ccccc1,< 50,48,1.49,,,,,
Cn1ncc(Cl)c1C(=O)N/N=C/c1ccccc1OC(=O)c1ccc([N+](=O)[O-])cc1,< 50,> 100,5.4,,,,,
O=[N+]([O-])c1ccc(CSc2cc3ccccc3[nH]2)c([N+](=O)[O-])c1,< 50,23.9,0.8,,,,,
CCOc1cc(/C=N\Nc2nc3ccccc3s2)cc([N+](=O)[O-])c1O,< 50,40,0.86,,,,,
CCOc1ccc(S(=O)(=O)N(CC(=O)N2CCc3ccccc3C2)c2ccccc2)cc1,< 50,> 100,29,,,,,
Cc1ccc2cccc(OC(=O)c3cccc([N+](=O)[O-])c3)c2n1,< 50,> 100,4.6,,,,,
O=C(NCCNC(=O)c1ccc([N+](=O)[O-])o1)c1ccc2ccccc2n1,< 50,> 100,82,,,,,
CC(C)(C)OC(=O)NNS(=O)(=O)c1cccc([N+](=O)[O-])c1,< 50,> 100,81,,,,,
Cc1cc(Cl)ccc1NC(=O)Cn1nnc2sc3c(c2c1=O)CCCC3,< 50,> 100,44,,,,,
O=C(Oc1cccc2ccccc12)c1cc([N+](=O)[O-])cc([N+](=O)[O-])c1,< 50,8.6,1.04,< 50,< 50,7.6,3.6,
Cc1ccc(Sc2nc([N+](=O)[O-])nn2CC(=O)c2ccccc2)cc1,< 50,76,1.4,,,,,
COc1cc(Cl)cc(/C=C2/SC(=O)N(Cc3ccc(F)cc3)C2=O)c1O,< 50,> 100,68,,,,,

SMILES,inhibition [1] [%],IC50 [2] [µM],IC50 [3] [µM],inhibition [4] [%],inhibition [5] [%],IC50 [6] [µM],IC50 [7] [µM],IC50 [8] [µM]
Cc1nn(Cc2ccc(F)cc2)c(C)c1NC(=O)C1CC(c2cccc(Br)c2)=NO1 (stereo not given),< 50,> 100,65,,,,,
O=C(CSc1nnnn1-c1ccc(Cl)c(C(=O)O)c1)Nc1ccc(F)cc1,< 50,> 100,15,,,,,
Cc1cccc(N=C2NS(=O)(=O)c3cc([N+](=O)[O-])ccc32)c1,,9.7,1.87,,,15.6,6.7,
c1ccc(SCc2nnc3sc(-c4ccc5c(c4)OCCO5)nn23)cc1,< 50,> 100,70,,,,,
O=c1/c(=C/c2cc(I)c(O)c([N+](=O)[O-])c2)sc2nc3ccccc3n12,< 50,> 100,33.8,,,,,
Clc1ccc(-c2nn3c(Cc4ccccc4)nnc3s2)cc1Cl,< 50,> 100,37.5,,,,,
O=C1c2ccc([N+](=O)[O-])cc2C(=O)N1CNc1ccc([N+](=O)[O-])cc1,< 50,38,5.3,,,,,
O=[N+]([O-])c1ccc(Cl)c(S(=O)(=O)n2cnc3ccccc32)c1,< 50,8.1,6.9,,,,,
Cc1cccc(C2=N/C(=C\c3ccc(-c4cccc(Cl)c4)o3)C(=O)O2)c1,< 50,> 100,14.2,,,,,
CC1(C)Cc2c(-c3ccccc3)c(-c3ccc(Cl)cc3)c(CC(=O)O)n2C1 [LICOFELONE],,,,,,3.9,,3.6
N#C/C(=C(/O)c1ccc(Cl)c([N+](=O)[O-])c1)c1nc2ccccc2s1,< 50,> 100,53,,,,,
Cc1cccc(NC2=NS(=O)(=O)c3cc([N+](=O)[O-])ccc32)c1,< 50,,,< 50,< 50,,,
COc1ccc(/C=C2\N=C(c3ccc(Cl)c([N+](=O)[O-])c3)OC2=O)c(OC)c1OC,< 50,> 100,20,,,,,
c1ccc2c(c1)OCC(c1nn3c(Cn4nnc5ccccc54)nnc3s1)O2 (stereo not given),< 50,> 100,97,,,,,
O=C(O/N=C/c1ccc(Br)cc1)c1cc([N+](=O)[O-])cc([N+](=O)[O-])c1,< 50,36,0.62,,,,,
C/C(NCc1ccc(Cl)c(Cl)c1)=C1\C(=O)N(c2nc3ccccc3s2)N=C1C(F)(F)F,< 50,> 100,70,,,,,
